These results are taken from patent US10738041B2, “Ferroportin inhibitors” (Vifor (International) AG, priority 2015, dated 2020).

One test deals with T1, ferroportin (Homo sapiens, UniProt Q9NP59).
T1 construct: host or cells: T47D cells
T1 sequence (Q9NP59 1-571): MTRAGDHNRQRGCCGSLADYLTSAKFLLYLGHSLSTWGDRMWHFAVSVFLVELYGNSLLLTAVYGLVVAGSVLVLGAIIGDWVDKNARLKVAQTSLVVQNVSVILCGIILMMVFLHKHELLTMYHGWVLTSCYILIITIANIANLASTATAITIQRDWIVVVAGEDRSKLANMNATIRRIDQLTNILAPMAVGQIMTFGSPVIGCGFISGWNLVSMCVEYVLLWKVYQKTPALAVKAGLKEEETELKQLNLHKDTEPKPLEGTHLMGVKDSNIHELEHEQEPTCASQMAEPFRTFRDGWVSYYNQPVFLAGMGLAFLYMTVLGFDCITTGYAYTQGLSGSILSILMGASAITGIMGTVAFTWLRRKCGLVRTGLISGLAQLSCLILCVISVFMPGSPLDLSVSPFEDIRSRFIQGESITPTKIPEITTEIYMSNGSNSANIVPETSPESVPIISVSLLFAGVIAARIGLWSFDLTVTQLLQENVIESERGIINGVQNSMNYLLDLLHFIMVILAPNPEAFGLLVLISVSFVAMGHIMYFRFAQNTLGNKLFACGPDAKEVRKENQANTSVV
In words: Inhibition of Iron Efflux by Ferroportin Inhibitors. In kind it is cell-based. The note with it: T47D cells, 58Fe in supernatant, 20 h; representative (FIG. 2). Here is the method: The activity of hepcidin and ferroportin inhibitor compounds regarding their ability to block iron export via ferroportin was tested on T47D cells (ECACC, Cat. 85102201) as described below.
Cells were plated in 24-well plates (Greiner, Cat. 662160) containing 350,000 cells/well and incubated overnight with 100 μM ^58Fe (^58Fe(II)-Sulfate, Vifor Pharma Batch No. ROR 3085) in 500 μM L-Ascorbic Acid (Sigma Aldrich, Cat. 795437) containing growth medium. […] A serial dilution of hepdicin (Bachem) or ferroportin inhibitors (4 μM-0.0064 μM, 5 fold dilution) was added in a total volume of 0.6 ml per well. Cells were incubated at 37° C. with 5% CO2 for 20 h. Supernatants were collected and ^58Fe was measured using inductively coupled plasma mass spectrometry (ICP-MS, Thermo Scientific, Element 2). Pellets were harvested for protein concentration measurements. Results are plotted as ng^58Fe in supernatant per mg protein in cell lysates.

In test [1] the test system is b2m−/− mice. Briefly: Prevention of iron overload in beta2-microglobulin deficient mice. In kind it is in vivo, mouse. The note with it: 14 day treatment; for 58Fe Liver Iron Reduction (%): ICP-MS; for Total Liver Iron Reduction (%) / Total Spleen Iron Increase (%): ICP-OES. As to the method: The efficacy of the Fpn inhibitors to prevent liver iron accumulation in b2m−/− mice was investigated. Three weeks old b2−/− mice fed LID were dosed with either Fpn inhibitor or vehicle (methylcellulose; 10 ml/kg). Mice had access to drinking water supplemented with 1 mM^58Fe(II)-sulfate and 10 mM ascorbic acid. Dosing of Fpn inhibitor or vehicle followed by exposure to iron-containing water was repeated for 14 days. Mice were euthanized and the liver and spleen iron contents were analyzed by ICP-OES (all iron isotopes) and liver tissue was also analyzed for ^58Fe concentration (ICP-MS).

In test [2] the test system is b2m−/− mice. In words: Correction of hyperferremia in beta2-microglobulin deficient mice. The test is classed as in vivo, mouse. The text has this: Mutations in genes involved in sensing the systemic iron stores, such as hepcidin (Hamp1), hemochromatosis protein (HFE), hemojuvelin (HJV) and transferrin receptor 2 (TFR2) cause iron overload in mice and men. HFE, HJV and TFR2 molecules on hepatocytes are necessary for signaling of appropriate hepcidin production and their deficiency results in pathophysiologically low hepcidin levels and excessive iron absorption. HFE mutations is the most frequent cause of hereditary hemochromatosis (HH) in Caucasian adults. HFE is a MHC class I-like membrane molecule that associates with beta 2-microglobulin and participates in hepcidin transcriptional regulation through the bone morphogenetic protein receptor (BMPR) pathway. HFE−/− mice have decreased hepcidin levels, develop hyperferremia and high hepatic iron levels, which makes them a suitable animal model for studying iron overload in humans (Zhou, 1998). Mice deficient in beta 2-microglobulin (b2m−/−) develop hyperferremia and hemochromatosis similarly to HFE−/− animals, as beta 2-microglobulin is necessary for the cell-surface expression and function of HFE (Rothenberg and Voland, 1996). Due to the unavailability of HFE−/− mice, b2m−/− mice were used as a model of iron overload.
Female and male homozygous b2m−/− mice were supplied from Jackson Laboratories (B6.129P2-B2mtm1Unc/J, Stock Number: 002087) at age of 6 to 7 weeks and fed standard diet (Harlan Provimi Kliba 3436) ad libitum. Age and gender matched WT C57BL/6 mice were supplied by Charles River. To study the acute effects of ferroportin (Fpn) inhibitors in iron overload b2m−/− mice were treated with compounds or the corresponding amount of vehicle at a volume of 10 ml/kg body weight. […] WT controls received only vehicle. Three hours later, mice were pre-terminally anesthetized in isoflurane chambers and blood was collected by retro-orbital bleeding. Mice were sacrificed by cervical dislocation and spleens, livers and duodena were harvested and used for biomarker analysis. All experiments have been performed in compliance with license approved by the responsible veterinarian authorities. Serum was isolated by centrifugation of blood into gel-containing microtainers (BD Biosciences) and serum iron was determined by the MULTIGENT Iron assay (Abbott Diagnostics, Cat. 6K95). Four to nine mice per group were used and one-way ANOVA with Bonferroni's multiple comparison test was applied to analyze the statistical differences between the experimental groups.

SMILES strings stand for the structures. pIC50: −log10 of the molar value. Marks after values point to notes of the source that are not given here.

What is called pIC50 is −log10 of the IC50, conventionally taken in molar units. A high value points to a small IC50.

On ferroportin, `CC[C@H](C)[C@@H]1NC(=O)[C@@H](NC(=O)[C@@H](NC(=O)[C@@H]2CCCN2C(=O)[C@H](Cc2ccccc2)NC(=O)[C@H](Cc2c[nH]cn2)NC(=O)[C@@H](NC(=O)[C@@H](N)CC(=O)O)[C@@H](C)O)[C@@H](C)CC)CSSC[C@@H](C(=O)N[C@@H](CCCCN)C(=O)N[C@H](C(=O)O)[C@@H](C)O)NC(=O)[C@@H]2CSSC[C@@H]3NC(=O)[C@@H]4CSSC[C@H](NC(=O)[C@H](Cc5ccccc5)NC1=O)C(=O)N[C@@H](CSSC[C@H](NC(=O)[C@H](CCCCN)NC(=O)[C@H](CO)NC(=O)[C@H](CCCNC(=N)N)NC(=O)[C@H](Cc1c[nH]cn1)NC3=O)C(=O)NCC(=O)N[C@@H](CCSC)C(=O)N2)C(=O)NCC(=O)N4` [hepcidin, reference compound] gave a pIC50 of 7.07.
As to `O=C(NCc1ncccc1F)c1coc(C2CN(CCc3nc4ccccc4[nH]3)C2)n1` [Example 208], the “58Fe Liver Iron Reduction (%)” value in the test on b2m−/− mice [1] (female, 20 mg/kg p.o. b.i.d.) was 71* %; in the test with b2m−/− mice [1] (female, 60 mg/kg p.o. b.i.d.) it was 87** %; in the test on b2m−/− mice [1] (male, 20 mg/kg p.o. b.i.d.), 58%; with b2m−/− mice [1] (male, 60 mg/kg p.o. b.i.d.) it was 94** %. In addition, the “Total Liver Iron Reduction (%)” value in the test on b2m−/− mice [1] (female, 20 mg/kg p.o. b.i.d.) is 15%; in the test with b2m−/− mice [1] (female, 60 mg/kg p.o. b.i.d.) it was 8%; with b2m−/− mice [1] (male, 60 mg/kg p.o. b.i.d.) it was 84** %. The “Total Spleen Iron Increase (%)” value in the test on b2m−/− mice [1] (female, 20 mg/kg p.o. b.i.d.) was 56** %; in the test on b2m−/− mice [1] (female, 60 mg/kg p.o. b.i.d.), 150*** %; in the test with b2m−/− mice [1] (male, 20 mg/kg p.o. b.i.d.), 21%; in the test with b2m−/− mice [1] (male, 60 mg/kg p.o. b.i.d.) it was 43%. Further, the “Serum Iron Reduction (%)” value was 9% with b2m−/− mice [2] (female, Dose 20 mg/kg oral, blood collected 3 hours (##) after administration); 49*** % in the test with b2m−/− mice [2] (female, Dose 60 mg/kg oral, blood collected 3 hours (##) after administration); 44% in the test with b2m−/− mice [2] (male, Dose 20 mg/kg oral, blood collected 3 hours (##) after administration); 67** % with b2m−/− mice [2] (male, Dose 60 mg/kg oral, blood collected 3 hours (##) after administration).
On to `O=C(NCc1ncccc1F)c1csc(CCNCCc2nc3ccccc3[nH]2)n1` [Example 94], for which, in the test with b2m−/− mice [1] (female, 60 mg/kg p.o. b.i.d.), the “Total Liver Iron Reduction (%)” value is reported as 57% and the “Total Spleen Iron Increase (%)” value stood at 65%. Moreover, the “Total Liver Iron Reduction (%)” value in the test on b2m−/− mice [1] (male, 60 mg/kg p.o. b.i.d.) is 79%. Also, the “correction of elevated serum iron” value in the test on b2m−/− mice [2] (b2m−/− mice, 50 mg/kg p.o. for 3 h (FIG. 5)) is recorded as “corrected the elevated serum iron to the levels observed in WT controls”.
Turning to `O=C(NCc1ncccc1F)c1coc(CCNCCc2nc3ccccc3[nH]2)n1` [Example 127], the “58Fe Liver Iron Reduction (%)” value is recorded as 34% with b2m−/− mice [1] (female, 20 mg/kg p.o. b.i.d.); 63*** % in the test on b2m−/− mice [1] (female, 60 mg/kg p.o. b.i.d.); 71*** % with b2m−/− mice [1] (male, 20 mg/kg p.o. b.i.d.); 73*** % in the test with b2m−/− mice [1] (male, 60 mg/kg p.o. b.i.d.). Also, the “Total Liver Iron Reduction (%)” value with b2m−/− mice [1] (female, 20 mg/kg p.o. b.i.d.) is −38%; in the test with b2m−/− mice [1] (female, 60 mg/kg p.o. b.i.d.) it was 2%; in the test with b2m−/− mice [1] (male, 20 mg/kg p.o. b.i.d.) it was 50** %; with b2m−/− mice [1] (male, 60 mg/kg p.o. b.i.d.) it was 65*** %. Also, the “Total Spleen Iron Increase (%)” value in the test on b2m−/− mice [1] (female, 20 mg/kg p.o. b.i.d.) was 71* %; in the test on b2m−/− mice [1] (female, 60 mg/kg p.o. b.i.d.), 51%; with b2m−/− mice [1] (male, 20 mg/kg p.o. b.i.d.) it was −7%; in the test with b2m−/− mice [1] (male, 60 mg/kg p.o. b.i.d.), −16%. In addition, the “Serum Iron Reduction (%)” value with b2m−/− mice [2] (female, Dose 20 mg/kg oral, blood collected 1 or 3 hours after administration (time not given)) is recorded as 47*** %; in the test on b2m−/− mice [2] (female, Dose 60 mg/kg oral, blood collected 1 or 3 hours after administration (time not given)), 74*** %; with b2m−/− mice [2] (male, Dose 20 mg/kg oral, blood collected 1 or 3 hours after administration (time not given)), 21%; with b2m−/− mice [2] (male, Dose 60 mg/kg oral, blood collected 1 or 3 hours after administration (time not given)) it was 83** %. The pIC50 on ferroportin was 7.10.
